Source: ChEMBL document CHEMBL4118148, “Design, synthesis and cardiovascular evaluation of some aminoisopropanoloxy derivatives of xanthone” (Bioorg Med Chem, 2018)
pIC50, pKi: −log10 of the molar value. The source made the active and inactive calls. No cut-off for these calls is given here.

Experiments:
[1] = biological target: Adrenergic receptor alpha-2 (Rattus norvegicus) (UniProt P22086+P19328+P22909); experiment: Displacement of [3H]-clonidine from adrenergic alpha2 receptor in Wistar rat cortex at 10^-5 M incubated for 25 mins by microbeta liquid scintillation counting analysis
[2] = biological target: Beta-1 adrenergic receptor (Rattus norvegicus, UniProt P18090); experiment: Displacement of [3H]-CGP-12177 from adrenergic beta1 receptor in Wistar rat cortex incubated for 60 mins by microbeta liquid scintillation counting analysis
Rattus norvegicus [3] = experiment: Hypotensive activity in normotensive Wistar rat assessed as systolic blood pressure at 5 mg/kg, iv measured after 5 mins (reference value: 119.2 to 148.6 mmHg); type: functional
Rattus norvegicus [4] = experiment: Hypotensive activity in normotensive Wistar rat assessed as diastolic blood pressure at 5 mg/kg, iv measured after 5 mins (reference value: 86.5 to 119.4 mmHg); type: functional
Rattus norvegicus [5] = experiment: Hypotensive activity in normotensive Wistar rat assessed as systolic blood pressure at 5 mg/kg, iv measured after 10 mins (reference value: 119.2 to 148.6 mmHg); type: functional
Rattus norvegicus [6] = experiment: Hypotensive activity in normotensive Wistar rat assessed as diastolic blood pressure at 5 mg/kg, iv measured after 10 mins (reference value: 86.5 to 119.4 mmHg); type: functional
Rattus norvegicus [7] = experiment: Hypotensive activity in normotensive Wistar rat assessed as systolic blood pressure at 5 mg/kg, iv measured after 20 mins (reference value: 119.2 to 148.6 mmHg); type: functional
Rattus norvegicus [8] = experiment: Hypotensive activity in normotensive Wistar rat assessed as diastolic blood pressure at 5 mg/kg, iv measured after 20 mins (reference value: 86.5 to 119.4 mmHg); type: functional
Rattus norvegicus [9] = experiment: Hypotensive activity in normotensive Wistar rat assessed as systolic blood pressure at 5 mg/kg, iv measured after 30 mins (reference value: 119.2 to 148.6 mmHg); type: functional
Rattus norvegicus [10] = experiment: Hypotensive activity in normotensive Wistar rat assessed as diastolic blood pressure at 5 mg/kg, iv measured after 30 mins (reference value: 86.5 to 119.4 mmHg); type: functional
Rattus norvegicus [11] = experiment: Hypotensive activity in normotensive Wistar rat assessed as systolic blood pressure at 5 mg/kg, iv measured after 60 mins (reference value: 119.2 to 148.6 mmHg); type: functional
Rattus norvegicus [12] = experiment: Hypotensive activity in normotensive Wistar rat assessed as diastolic blood pressure at 5 mg/kg, iv measured after 60 mins (reference value: 86.5 to 119.4 mmHg); type: functional
Rattus norvegicus [13] = experiment: Cardiotoxicity in Wistar rat assessed as effect on heart rate at 5 mg/kg, iv measured after 1 min (reference value: 323 to 374.5 bpm); type: toxicity, organism-based; conditions: in vivo
Rattus norvegicus [14] = experiment: Cardiotoxicity in Wistar rat assessed as effect on PQ interval time at 5 mg/kg, iv measured after 1 min (reference value: 52 to 57 ms); type: toxicity, organism-based; conditions: in vivo
Rattus norvegicus [15] = experiment: Cardiotoxicity in Wistar rat assessed as effect on QRS interval time at 5 mg/kg, iv measured after 1 min (reference value: 16.7 to 20.7 ms); type: toxicity, organism-based; conditions: in vivo
Rattus norvegicus [16] = experiment: Cardiotoxicity in Wistar rat assessed as effect on QT interval time at 5 mg/kg, iv measured after 1 min (reference value: 57.7 to 61 ms); type: toxicity, organism-based; conditions: in vivo
Rattus norvegicus [17] = experiment: Cardiotoxicity in Wistar rat assessed as effect on QTC interval time at 5 mg/kg, iv measured after 1 min (reference value: 136.7 to 146.2 ms); type: toxicity, organism-based; conditions: in vivo
Rattus norvegicus [18] = experiment: Cardiotoxicity in Wistar rat assessed as effect on heart rate at 5 mg/kg, iv measured after 5 mins (reference value: 323 to 374.5 bpm); type: toxicity, organism-based; conditions: in vivo
Rattus norvegicus [19] = experiment: Cardiotoxicity in Wistar rat assessed as effect on PQ interval time at 5 mg/kg, iv measured after 5 mins (reference value: 52 to 57 ms); type: toxicity, organism-based; conditions: in vivo
Rattus norvegicus [20] = experiment: Cardiotoxicity in Wistar rat assessed as effect on QRS interval time at 5 mg/kg, iv measured after 5 mins (reference value: 16.7 to 20.7 ms); type: toxicity, organism-based; conditions: in vivo
Rattus norvegicus [21] = experiment: Cardiotoxicity in Wistar rat assessed as effect on QT interval time at 5 mg/kg, iv measured after 5 mins (reference value: 57.7 to 61 ms); type: toxicity, organism-based; conditions: in vivo
Rattus norvegicus [22] = experiment: Cardiotoxicity in Wistar rat assessed as effect on QTC interval time at 5 mg/kg, iv measured after 5 mins (reference value: 136.7 to 146.2 ms); type: toxicity, organism-based; conditions: in vivo
Rattus norvegicus [23] = experiment: Cardiotoxicity in Wistar rat assessed as effect on heart rate at 5 mg/kg, iv measured after 15 mins (reference value: 323 to 374.5 bpm); type: toxicity, organism-based; conditions: in vivo, 0.25 h
Rattus norvegicus [24] = experiment: Cardiotoxicity in Wistar rat assessed as effect on PQ interval time at 5 mg/kg, iv measured after 15 mins (reference value: 52 to 57 ms); type: toxicity, organism-based; conditions: in vivo, 0.25 h
Rattus norvegicus [25] = experiment: Cardiotoxicity in Wistar rat assessed as effect on QRS interval time at 5 mg/kg, iv measured after 15 mins (reference value: 16.7 to 20.7 ms); type: toxicity, organism-based; conditions: in vivo, 0.25 h
Rattus norvegicus [26] = experiment: Cardiotoxicity in Wistar rat assessed as effect on QT interval time at 5 mg/kg, iv measured after 15 mins (reference value: 57.7 to 61 ms); type: toxicity, organism-based; conditions: in vivo, 0.25 h
Rattus norvegicus [27] = experiment: Cardiotoxicity in Wistar rat assessed as effect on QTC interval time at 5 mg/kg, iv measured after 15 mins (reference value: 136.7 to 146.2 ms); type: toxicity, organism-based; conditions: in vivo, 0.25 h
Blood = experiment: Anti-aggregative activity in Wistar rat whole blood assessed as inhibition of collagen-induced aggregation preincubated for 3 mins followed by collagen induction measured for 6 mins; type: functional, tissue-based

Beta-1 adrenergic receptor, sequence (P18090 whole entry): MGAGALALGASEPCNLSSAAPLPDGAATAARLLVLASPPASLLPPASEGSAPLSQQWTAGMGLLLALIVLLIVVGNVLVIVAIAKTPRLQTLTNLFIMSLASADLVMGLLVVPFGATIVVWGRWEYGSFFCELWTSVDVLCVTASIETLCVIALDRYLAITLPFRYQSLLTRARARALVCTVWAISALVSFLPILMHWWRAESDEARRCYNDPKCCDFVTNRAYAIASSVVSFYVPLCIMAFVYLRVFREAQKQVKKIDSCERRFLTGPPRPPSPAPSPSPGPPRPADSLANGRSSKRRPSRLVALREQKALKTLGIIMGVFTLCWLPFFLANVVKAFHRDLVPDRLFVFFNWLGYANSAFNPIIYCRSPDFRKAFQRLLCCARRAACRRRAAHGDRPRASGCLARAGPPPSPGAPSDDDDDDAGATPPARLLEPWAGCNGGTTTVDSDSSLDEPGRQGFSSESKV

| Compound | Activity [1] | pKi [2] | Activity (Rattus norvegicus [3]) | Activity (Rattus norvegicus [4]) | Activity (Rattus norvegicus [5]) | Activity (Rattus norvegicus [6]) | Activity (Rattus norvegicus [7]) | Activity (Rattus norvegicus [8]) | Activity (Rattus norvegicus [9]) | Activity (Rattus norvegicus [10]) | Activity (Rattus norvegicus [11]) | Activity (Rattus norvegicus [12]) | Activity (Rattus norvegicus [13]) | Time (Rattus norvegicus [14]) | Time (Rattus norvegicus [15]) | Time (Rattus norvegicus [16]) | Time (Rattus norvegicus [17]) | Activity (Rattus norvegicus [18]) | Time (Rattus norvegicus [19]) | Time (Rattus norvegicus [20]) | further results |
| --- | --- | --- | --- | --- | --- | --- | --- | --- | --- | --- | --- | --- | --- | --- | --- | --- | --- | --- | --- | --- | --- |
| Cl.O=c1c2ccccc2oc2cc(OCC(O)CN3CCN(c4ccccn4)CC3)ccc12 (racemic) | inactive | 5.80 | 114.7 mmHg | 81 mmHg | 110.3 mmHg | 80.5 mmHg | 108.8 mmHg | 80.3 mmHg | 108.7 mmHg | 79.5 mmHg | 102.5 mmHg | 74.7 mmHg | 340.7 bpm | 55.3 ms | 18.7 ms | 59 ms | 140.2 ms | 313 bpm | 54.7 ms | 20 ms | Time (Rattus norvegicus [21]): 58.3 ms; Time (Rattus norvegicus [22]): 133.3 ms; Activity (Rattus norvegicus [23]): 295.3 bpm; Time (Rattus norvegicus [24]): 56 ms; Time (Rattus norvegicus [25]): 21.3 ms; Time (Rattus norvegicus [26]): 59 ms; Time (Rattus norvegicus [27]): 133.9 ms; pIC50 (Blood): 4.11; inhibition (Blood): Dose-dependent effect |
| COc1ccccc1OCCNCC(O)COc1cccc2c(=O)c3ccccc3oc12.Cl (racemic) | inactive | 6.07 | 121.6 mmHg | 89.7 mmHg | 106.5 mmHg | 73 mmHg | 97.7 mmHg | 71.5 mmHg | 94.5 mmHg | 77.2 mmHg | 106.2 mmHg | 80 mmHg | 307 bpm | 56 ms | 19 ms | 70 ms | 157.2 ms | 296 bpm | 58 ms | 19.3 ms | pIC50 [2]: 6.75; Time (Rattus norvegicus [21]): 67.3 ms; Time (Rattus norvegicus [22]): 148.3 ms; Activity (Rattus norvegicus [23]): 308.7 bpm; Time (Rattus norvegicus [24]): 57.3 ms; Time (Rattus norvegicus [25]): 18.7 ms; Time (Rattus norvegicus [26]): 63.3 ms; Time (Rattus norvegicus [27]): 131.1 ms; pIC50 (Blood): 4.31; inhibition (Blood): Dose-dependent effect |
| COc1ccc(CCNCC(O)COc2cccc3c(=O)c4ccccc4oc23)cc1OC.Cl (racemic) | inactive | 6.45 | 135.4 mmHg | 101.4 mmHg | 135.6 mmHg | 105 mmHg | 127 mmHg | 97.4 mmHg | 128 mmHg | 96.2 mmHg | 129.8 mmHg | 98.6 mmHg | 262.7 bpm | 62.7 ms | 22.8 ms | 61.3 ms | 128.1 ms | 254.7 bpm | 58 ms | 22.7 ms | pIC50 [2]: 6.97; Time (Rattus norvegicus [21]): 66.7 ms; Time (Rattus norvegicus [22]): 138.4 ms; Activity (Rattus norvegicus [23]): 265.7 bpm; Time (Rattus norvegicus [24]): 59.3 ms; Time (Rattus norvegicus [25]): 21.3 ms; Time (Rattus norvegicus [26]): 63.3 ms; Time (Rattus norvegicus [27]): 132.7 ms |
| COc1ccccc1CCNCC(O)COc1cccc2c(=O)c3ccccc3oc12.Cl (racemic) | inactive | 6.44 | 146.2 mmHg | 108.6 mmHg | 133.4 mmHg | 101.8 mmHg | 128.2 mmHg | 98.8 mmHg | 126 mmHg | 97.2 mmHg | 117 mmHg | 89.6 mmHg | 356 bpm | 52 ms | 18 ms | 60.5 ms | 149.3 ms | 336 bpm | 52.5 ms | 19 ms | pIC50 [2]: 6.37; Time (Rattus norvegicus [21]): 61 ms; Time (Rattus norvegicus [22]): 148.2 ms; Activity (Rattus norvegicus [23]): 390.5 bpm; Time (Rattus norvegicus [24]): 51 ms; Time (Rattus norvegicus [25]): 17 ms; Time (Rattus norvegicus [26]): 60 ms; Time (Rattus norvegicus [27]): 148.5 ms; pIC50 (Blood): 4.48; inhibition (Blood): Dose-dependent effect |

These reach a higher pKi [2]. Values come first.

| Activity [1] | pKi [2] | Compound | Activity (Rattus norvegicus [3]) | Activity (Rattus norvegicus [4]) | Activity (Rattus norvegicus [5]) | Activity (Rattus norvegicus [6]) | Activity (Rattus norvegicus [7]) | Activity (Rattus norvegicus [8]) | Activity (Rattus norvegicus [9]) | Activity (Rattus norvegicus [10]) | Activity (Rattus norvegicus [11]) | Activity (Rattus norvegicus [12]) | Activity (Rattus norvegicus [13]) | Time (Rattus norvegicus [14]) | Time (Rattus norvegicus [15]) | Time (Rattus norvegicus [16]) | Time (Rattus norvegicus [17]) | Activity (Rattus norvegicus [18]) | Time (Rattus norvegicus [19]) | Time (Rattus norvegicus [20]) | further results |
| --- | --- | --- | --- | --- | --- | --- | --- | --- | --- | --- | --- | --- | --- | --- | --- | --- | --- | --- | --- | --- | --- |
| inactive | 6.67 | Cl.O=c1c2ccccc2oc2c(OCC(O)CN3CCN(c4ccccn4)CC3)cccc12 (racemic) | 136.8 mmHg | 110.8 mmHg | 131.4 mmHg | 106 mmHg | 129.8 mmHg | 102.6 mmHg | 126.6 mmHg | 99.8 mmHg | 126.4 mmHg | 96.6 mmHg | 368.2 bpm | 58.2 ms | 18.5 ms | 58.7 ms | 145.4 ms | 356 bpm | 58 ms | 18 ms | pIC50 [2]: 5.85; Time (Rattus norvegicus [21]): 59.5 ms; Time (Rattus norvegicus [22]): 144.8 ms; Activity (Rattus norvegicus [23]): 343 bpm; Time (Rattus norvegicus [24]): 59 ms; Time (Rattus norvegicus [25]): 19.2 ms; Time (Rattus norvegicus [26]): 60.2 ms; Time (Rattus norvegicus [27]): 144 ms; pIC50 (Blood): 4.19; inhibition (Blood): Dose-dependent effect |
| inactive | 7.97 | COc1ccccc1CNCC(O)COc1cccc2c(=O)c3ccccc3oc12.Cl (racemic) | 149.3 mmHg | 107.2 mmHg | 147.7 mmHg | 107 mmHg | 133 mmHg | 100.6 mmHg | 126 mmHg | 96 mmHg | 125.3 mmHg | 94.3 mmHg | 246 bpm | 60.7 ms | 22 ms | 65.5 ms | 151.4 ms | 243.7 bpm | 63.3 ms | 22.7 ms | pIC50 [2]: 6.75; Time (Rattus norvegicus [21]): 64.7 ms; Time (Rattus norvegicus [22]): 129.8 ms; Activity (Rattus norvegicus [23]): 265 bpm; Time (Rattus norvegicus [24]): 57.7 ms; Time (Rattus norvegicus [25]): 21.3 ms; Time (Rattus norvegicus [26]): 66.7 ms; Time (Rattus norvegicus [27]): 139.3 ms; pIC50 (Blood): 4.06; inhibition (Blood): Dose-dependent effect |
| inactive | 8.27 | CC(C)(C)NCC(O)COc1cccc2c(=O)c3ccccc3oc12.Cl (racemic) | – | – | – | – | – | – | – | – | – | – | – | – | – | – | – | – | – | – | pIC50 (Blood): 4.48; inhibition (Blood): Dose-dependent effect |
